How the values were obtained:
Format in all cases: cell-based, human
MDA-MB-435 cells = assay: Immunofluorescent staining for actin localisation (confocal microscopy); details: 5 µM, 20 h
Description: To evaluate the effect of compound treatment on cell morphology and stress actin fibres, an immunofluorescence imaging of cells was performed as previously described. MDA-MB-435 cells were seeded on cover slips in petri dishes and allowed to grow for 24 h. After cell growth, cells were treated with the vehicule (control cells) or with JMV5038, compound 5 or 8 at 5 µM for 20 h. Then cells were fixed using Antigenfix for 20 min and permeabilized using 0.2% Triton X-100 for 4 min at room temperature. Actin was stained using a primary human anti-actin antibody (made from mouse) and a secondary Alexa Fluor 568-conjugated goat anti-mouse antibody. Both of them were incubated 1 h at room temperature. Nuclei were counter-stained using Hoechst 33342. Representative images were obtained using a Zeiss LSM 780 inverted confocal microscopy. Confocal fluorescence microscopy was performed on fixed cells under a 543 nm wavelength excitation for AlexaFluor568, and 405 nm for nuclei, and visualised at 620 nm (red) and 450 nm (blue) respectively.
In our previous study, we reported that JMV5038 led to changes in the cell morphology, concomitant with a disruption of the actin network. Morphological changes in MDA-MB-435 cells induced by compounds 5 or 8 were investigated and compared to those induced by JMV5038. For this purpose, fixed and actin immunostained MDA-MB-435 cells were imaged by confocal microscopy (Figure 6). Control cells treated with DMSO (20 h, 5 µM concentration) were spread and the tensile forces of actin stress fibres stretched the cell-adhesive phenotype.

[1] = test system: NCI-60 cancer cell line panel; assay: NCI-60 SRB assay, whole panel; details: 10 µM, 48 h
Description: (§1) Primary anticancer assay was performed on a panel of 60 human cancer cell lines derived from nine neoplastic diseases, in accordance with the protocol of the Drug Evaluation Branch, National Cancer Institute, Bethesda, Maryland, USA[22]. Cells were incubated with tested compounds at 10 µM for 48 h. The growth percentage was evaluated spectrophotometrically using a protein binding dye, SRB. Results for each tested compound were reported as the percent of growth of treated cells when compared to untreated control cells.
(§2) To better compare the activity profile of these two series of compounds, compounds 5 and 8 were selected and then evaluated towards a panel of sixty cancer cell lines corresponding to nine different cancer types, i.e. leukaemia, melanoma, as well as lung, colon, central nervous system, ovarian, renal, prostate and breast cancers (NCI evaluation). Indeed, it is now well established that the growth inhibitory patterns of anticancer drugs against the NCI-60 cell line panel correlated well with their modes of action. For example, compounds that bind to tubulin have similar growth inhibition patterns regardless of which site on tubulin they bind[30]. […] Compounds were tested using the sulforhodamine B (SRB) assay that provides a direct cell density index. The amount of dye incorporated by the cells increases with the increase of the total protein biomass. Cells were incubated for 48 h with compounds at 10 µM concentration, then cell growth was evaluated spectrophotometrically and presented as the percent of untreated control cells. Values of the most sensitive cell lines were compared to those obtained with JMV5038 (Figure 4, for all data see SI).

CCRF-CEM = assay: NCI-60 SRB assay, CCRF-CEM (Leukemia); details: 10 µM, 48 h
Description: as §1, §2

HOP-92 = assay: NCI-60 SRB assay, HOP-92 (NSCLC); details: 10 µM, 48 h;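 for Mean G% - G%: mean growth across the NCI-60 panel minus this line's growth with positive meaning more sensitive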
Description: as §1, §2

NCI-H322M = assay: NCI-60 SRB assay, NCI-H322M (NSCLC); details: 10 µM, 48 h
Description: as §1, §2

NCI-H522 = assay: NCI-60 SRB assay, NCI-H522 (NSCLC); details: 10 µM, 48 h
Description: as §1, §2

HCC-2998 = assay: NCI-60 SRB assay, HCC-2998 (Colon Cancer); details: 10 µM, 48 h;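 for Mean G% - G%: mean growth across the NCI-60 panel minus this line's growth with positive meaning more sensitive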
Description: as §1, §2

HCT-15 = assay: NCI-60 SRB assay, HCT-15 (Colon Cancer); details: 10 µM, 48 h
Description: as §1, §2

SW-620 = assay: NCI-60 SRB assay, SW-620 (Colon Cancer); details: 10 µM, 48 h
Description: as §1, §2

SF-268 = assay: NCI-60 SRB assay, SF-268 (CNS Cancer); details: 10 µM, 48 h
Description: as §1, §2

SNB-19 = assay: NCI-60 SRB assay, SNB-19 (CNS Cancer); details: 10 µM, 48 h
Description: as §1, §2

SNB-75 = assay: NCI-60 SRB assay, SNB-75 (CNS Cancer); details: 10 µM, 48 h
Description: as §1, §2

U251 = assay: NCI-60 SRB assay, U251 (CNS Cancer); details: 10 µM, 48 h
Description: as §1, §2

M14 = assay: NCI-60 SRB assay, M14 (Melanoma); details: 10 µM, 48 h
Description: as §1, §2

SK-MEL-2 = assay: NCI-60 SRB assay, SK-MEL-2 (Melanoma); details: 10 µM, 48 h
Description: as §1, §2

UACC-257 = assay: NCI-60 SRB assay, UACC-257 (Melanoma); details: 10 µM, 48 h
Description: as §1, §2

UACC-62 = assay: NCI-60 SRB assay, UACC-62 (Melanoma); details: 10 µM, 48 h
Description: as §1, §2

OVCAR-3 = assay: NCI-60 SRB assay, OVCAR-3 (Ovarian Cancer); details: 10 µM, 48 h;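 for Mean G% - G%: mean growth across the NCI-60 panel minus this line's growth with positive meaning more sensitive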
Description: as §1, §2

OVCAR-5 = assay: NCI-60 SRB assay, OVCAR-5 (Ovarian Cancer); details: 10 µM, 48 h;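 for Mean G% - G%: mean growth across the NCI-60 panel minus this line's growth with positive meaning more sensitive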
Description: as §1, §2

786-0 = assay: NCI-60 SRB assay, 786-0 (Renal Cancer); details: 10 µM, 48 h
Description: as §1, §2

A498 = assay: NCI-60 SRB assay, A498 (Renal Cancer); details: 10 µM, 48 h
Description: as §1, §2

ACHN = assay: NCI-60 SRB assay, ACHN (Renal Cancer); details: 10 µM, 48 h
Description: as §1, §2

RXF 393 = assay: NCI-60 SRB assay, RXF 393 (Renal Cancer); details: 10 µM, 48 h
Description: as §1, §2

SN12C = assay: NCI-60 SRB assay, SN12C (Renal Cancer); details: 10 µM, 48 h
Description: as §1, §2

PC-3 = assay: NCI-60 SRB assay, PC-3 (Prostate Cancer); details: 10 µM, 48 h
Description: as §1, §2

BT-549 = assay: NCI-60 SRB assay, BT-549 (Breast Cancer); details: 10 µM, 48 h
Description: as §1, §2

C[C@@H]1NC(c2ccc(Br)cc2)=Nc2nc3ccccn3c2C1=O [JMV5038]
morphological changes / actin network (MDA-MB-435 cells): disorganisation of the actin cytoskeleton
Mean G% (mean growth over the panel) [1]: 54,24%
Mean G% - G% (CCRF-CEM): -25,20%
G% (CCRF-CEM; growth vs untreated control): 79,44%
Mean G% - G% (HOP-92): -5,24%
G% (HOP-92; growth vs untreated control): 59,48%
Mean G% - G% (NCI-H322M): -19,71%
G% (NCI-H322M; growth vs untreated control): 73,95%
Mean G% - G% (NCI-H522): 19,43%
G% (NCI-H522; growth vs untreated control): 34,81%
Mean G% - G% (HCC-2998): -14,80%
G% (HCC-2998; growth vs untreated control): 69,04%
Mean G% - G% (HCT-15): 23,49%
G% (HCT-15; growth vs untreated control): 30,75%
Mean G% - G% (SW-620): 16,28%
G% (SW-620; growth vs untreated control): 37,96%
Mean G% - G% (SF-268): -29,20%
G% (SF-268; growth vs untreated control): 83,44%
Mean G% - G% (SNB-19): -28,38%
G% (SNB-19; growth vs untreated control): 82,62%
Mean G% - G% (SNB-75): 4,08%
G% (SNB-75; growth vs untreated control): 50,16%
Mean G% - G% (U251): 0,29%
G% (U251; growth vs untreated control): 53,95%
Mean G% - G% (M14): 22,48%
G% (M14; growth vs untreated control): 31,76%
Mean G% - G% (SK-MEL-2): 6,87%
G% (SK-MEL-2; growth vs untreated control): 47,37%
Mean G% - G% (UACC-257): -15,71%
G% (UACC-257; growth vs untreated control): 69,95%
Mean G% - G% (UACC-62): 5,01%
G% (UACC-62; growth vs untreated control): 49,23%
Mean G% - G% (OVCAR-3): 36,95%
G% (OVCAR-3; growth vs untreated control): 17,29%
Mean G% - G% (OVCAR-5): -28,14%
G% (OVCAR-5; growth vs untreated control): 82,38%
Mean G% - G% (786-0): -28,86%
G% (786-0; growth vs untreated control): 83,10%
Mean G% - G% (A498): -15,64%
G% (A498; growth vs untreated control): 69,88%
Mean G% - G% (ACHN): -14,97%
G% (ACHN; growth vs untreated control): 69,21%
Mean G% - G% (RXF 393): -13,94%
G% (RXF 393; growth vs untreated control): 68,18%
Mean G% - G% (SN12C): -37,53%
G% (SN12C; growth vs untreated control): 91,77%
Mean G% - G% (PC-3): -8,96%
G% (PC-3; growth vs untreated control): 63,20%
Mean G% - G% (BT-549): 4,92%
G% (BT-549; growth vs untreated control): 49,32%

From paper PMC7170309, “Imidazopyridine-fused [1,3]diazepinones: modulations of positions 2 to 4 and their impacts on the anti-melanoma activity” (Journal of Enzyme Inhibition and Medicinal Chemistry, 2020)
